Some test systems named below: HOP-92 NSCLC; SF-268 CNS; T-47D breast; RXF 393 renal; NCI-H226 lung; HS 578T breast; UO-31 renal; MALME-3M melanoma; CAKI-1 renal; MDA-N.
Holding throughout (assay): NCI tumour cell line growth inhibition, 48 h

Each structure is given as a SMILES string.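 Cultured in 96-well plates, cells were exposed to test compound for 48 hours across five concentrations. Here, GI50 denotes the concentration required for 50% inhibition of growth. TGI: concentration producing complete growth inhibition.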 A value given as a limit tells only on which side of the number the result lay.

For `O=C(NCCCCNCCCNC(=O)c1ccccc1)c1ccccc1`, the TGI in the test with HOP-92 NSCLC, in the test on SF-268 CNS, in the test with T-47D breast, in the test with RXF 393 renal, in the test on NCI-H226 lung and in the test with HS 578T breast was greater than 100 µM each time. The TGI in the test with UO-31 renal was greater than 100 µM.
`COc1cccc2c1C1(O)C2CCCC12OCCCO2` (stereo not drawn): the TGI in the test with SF-268 CNS, in the test on RXF 393 renal, with MALME-3M melanoma, in the test with CAKI-1 renal, in the test on NCI-H226 lung and in the test with UO-31 renal was greater than 100 µM in each case.
Regarding `O=c1[nH]c2ccccc2nc1/C=C(\O)C(F)F`, the TGI in the test with SF-268 CNS, with RXF 393 renal, with MALME-3M melanoma, in the test on MDA-N, with CAKI-1 renal and in the test on NCI-H226 lung was greater than 100 µM throughout. Further, the TGI in the test with HS 578T breast and with UO-31 renal was greater than 100 µM in each case.
For the compound `CC1CCc2c(sc3ncnc(N/N=C/c4ccc(Cl)c(Cl)c4)c23)C1` (stereo not drawn), the TGI with SF-268 CNS was greater than 100 µM; with RXF 393 renal, 70.3 µM; with MALME-3M melanoma, greater than 100 µM; with CAKI-1 renal, 56.6 µM; with NCI-H226 lung, 49.4 µM; in the test on UO-31 renal, 43.8 µM.
`CC(=O)NC1=C(C)C(=O)c2c(nc3n2CCC3O)C1=O` (stereo not drawn): the TGI is 33.3 µM in the test on HOP-92 NSCLC; greater than 83.3 µM with SF-268 CNS; 48.3 µM in the test with RXF 393 renal; 37.5 µM in the test with MALME-3M melanoma; greater than 100 µM with CAKI-1 renal; 63.4 µM in the test with NCI-H226 lung. In the test on UO-31 renal, the TGI is greater than 100 µM.
`CC(=O)NC1C(OCc2ccccc2)OC(CO)C(O)C1OCC(=O)NC(C)C(=O)NC(CCC(=O)NCCCCCNc1c2ccccc2nc2cccc([N+](=O)[O-])c12)C(N)=O` (stereo not drawn): the TGI in the test on HOP-92 NSCLC is 0.00311 µM; with SF-268 CNS it was less than 0.0001 µM; with MALME-3M melanoma, less than 0.0001 µM; in the test on CAKI-1 renal it was less than 0.0001 µM; with NCI-H226 lung, 0.00254 µM.
Consider `Nc1ccccc1NC(=O)CCCCCCC(=O)Nc1ccc2c(c1)/C(=C/c1ccc[nH]1)C(=O)N2`, for which the GI50 in the test on SF-268 CNS is 6.64 µM; in the test with T-47D breast, 3.67 µM; in the test on RXF 393 renal it was greater than 100 µM; with MALME-3M melanoma, 6.2 µM; in the test on HS 578T breast it was 47.6 µM; in the test with UO-31 renal, 2.21 µM. Also, the TGI with SF-268 CNS, in the test on T-47D breast, in the test with RXF 393 renal, in the test on MALME-3M melanoma, in the test on HS 578T breast and in the test on UO-31 renal was greater than 100 µM each time.
Turning to `COc1ccc(-c2nc(-c3cc4ccccc4oc3=O)cs2)cc1`, the TGI in the test on HOP-92 NSCLC, in the test with SF-268 CNS, with T-47D breast, in the test with RXF 393 renal, with MALME-3M melanoma and in the test with CAKI-1 renal was greater than 100 µM each time. Moreover, the TGI with NCI-H226 lung, in the test on HS 578T breast and in the test with UO-31 renal was greater than 100 µM throughout.
On to `Cn1c(-c2ccc[se]2)ccc1-c1ccc(CO)[se]1`, for which the TGI in the test with HOP-92 NSCLC is 43.2 µM; in the test with SF-268 CNS it was greater than 100 µM; in the test on RXF 393 renal, 6.26 µM; with MALME-3M melanoma it was 40.4 µM; with MDA-N, greater than 60.5 µM; in the test on CAKI-1 renal it was less than 0.0332 µM. Further, the TGI with NCI-H226 lung is 0.884 µM; in the test on HS 578T breast it was greater than 100 µM; in the test on UO-31 renal, greater than 100 µM.
For the compound `CSc1nc(NC2OCC(O)C(O)C2O)c(N)c(=O)n1C` (stereo not drawn), the TGI with HOP-92 NSCLC, in the test with SF-268 CNS, in the test with RXF 393 renal, in the test with MALME-3M melanoma, with NCI-H226 lung and in the test with UO-31 renal was greater than 100 µM each time.
On to `Cc1ccc(NC(=S)Nc2c(C)n(C)n(-c3ccccc3)c2=O)cc1`, for which the TGI with HOP-92 NSCLC, in the test with SF-268 CNS, in the test on RXF 393 renal, with MALME-3M melanoma, with MDA-N and in the test on CAKI-1 renal was greater than 100 µM throughout. The TGI in the test with NCI-H226 lung, in the test with HS 578T breast and in the test with UO-31 renal was greater than 100 µM each time.
With `Fc1ccc(C2CC(c3cccc(Nc4ccncc4)c3)=NN2c2cc(Cl)cc(Cl)c2)cc1` (stereo not drawn), the GI50 was 1.72 µM with SF-268 CNS; 1.59 µM in the test on RXF 393 renal; 1.72 µM with MALME-3M melanoma; 1.54 µM in the test with CAKI-1 renal; 1.36 µM in the test on UO-31 renal. Further, the TGI in the test with SF-268 CNS was determined as 3.4 µM; in the test on RXF 393 renal it was 2.99 µM; in the test on MALME-3M melanoma it was 3.41 µM; with CAKI-1 renal it was 2.92 µM; in the test on UO-31 renal it was 2.66 µM.
Consider `CC(=O)OCc1cc(=O)n(C)c2c3c4c(cc12)c(C)cc(=O)n4CO3`, for which the TGI in the test on HOP-92 NSCLC amounted to 10 µM; with SF-268 CNS it was 7.21 µM; in the test on RXF 393 renal, 3.33 µM; with MALME-3M melanoma, 2.72 µM; in the test with CAKI-1 renal, 33.9 µM; in the test with NCI-H226 lung, 5.5 µM. The TGI with UO-31 renal came out at 26.5 µM.
On to `OCC(O)C1OC2CC1Nc1ccccc1N2` (stereo not drawn), for which the TGI with HOP-92 NSCLC, in the test with SF-268 CNS, in the test with T-47D breast, in the test on MALME-3M melanoma, in the test on CAKI-1 renal and with NCI-H226 lung was greater than 100 µM throughout. Moreover, the TGI with HS 578T breast and in the test with UO-31 renal was greater than 100 µM in each case.
As for `O=C(NC1(C(=O)NNc2nnc(-c3ccccc3)c(-c3ccccc3)n2)C(c2ccccc2)C(c2ccccc2)=NN1c1ccccc1)c1ccccc1` (stereo not drawn), the TGI in the test on HOP-92 NSCLC, with SF-268 CNS, in the test on T-47D breast, in the test with RXF 393 renal, with MALME-3M melanoma and with CAKI-1 renal was greater than 100 µM each time. The TGI in the test on NCI-H226 lung, with HS 578T breast and in the test with UO-31 renal was greater than 100 µM in each case.

For the origin of these results see PubChem BioAssay (NCI).
